Patent publication US8841301B2, “Selective NR2B antagonists” (Bristol-Myers Squibb Company, priority 2011, dated 2014)

Target: hNR2B (Homo sapiens, UniProt Q05586+Q13224)
Assay: Electrophysiology NMDA receptor experiments: two electrode voltage-clamp in Xenopus laevis oocytes expressing GluN1/GluN2 subunits
Type: cell-based
Conditions: oocytes voltage clamped at −40 mV; 50 μM glutamate, 30 μM glycine; read-out: Rating (hNR2B IC50)
Method: Electrophysiology NMDA Receptor Experiments.
Stage V and VI oocytes were surgically removed from the ovaries of large, well-fed and healthy Xenopus laevis anesthetized with 3-amino-benzoic acid ethyl ester (3 gm/l). Clusters of isolated oocytes were incubated with 292 U/ml Worthington (Freehold, N.J.) type IV collagenase or 1.3 mg/ml collagenase (Life Technologies, Gaithersburg, Md.; 17018-029) for 2 hr in Ca^2+-free solution comprised of (in mM) 115 NaCl, 2.5 KCl, and 10 HEPES, pH 7.5, with slow agitation to remove the follicular cell layer. Oocytes were then washed in the same solution supplemented with 1.8 mM CaCl2 and maintained in Barth's solution comprised of (in mM): 88 NaCl, 1 KCl, 2.4 NaHCO3, 10 HEPES, 0.82 MgSO4, 0.33 Ca(NO3)2, and 0.91 CaCl2 and supplemented with 100 μg/ml gentamycin, 10 μg/ml streptomycin, and 10 μg/ml penicillin. Oocytes were manually defolliculated and injected within 24 hrs of isolation with 3-5 ng of human GluN1 subunit cRNA and 7-10 ng of human GluN2 cRNA subunit in a 50 nl volume, and incubated in Barth's solution at 18° C. for 2-7 d. Glass injection pipettes had tip sizes ranging from 10-20 microns, and were backfilled with mineral oil. cRNA was synthesized from linearized template cDNA for rat glutamate receptor subunits according to manufacturer specifications (Ambion).
Two electrode voltage-clamp recordings were made 2-7 days post-injection. Oocytes were placed in a dual-track plexiglass recording chamber with a single perfusion line that splits in a Y-configuration to perfuse two oocytes. Dual recordings were made at room temperature (23° C.) using two Warner OC725B two-electrode voltage clamp amplifiers, arranged as recommended by the manufacturer. Glass microelectrodes (1-10 Megaohms) were filled with 300 mM KCl (voltage electrode) or 3 M KCl (current electrode). The bath clamps communicated across silver chloride wires placed into each side of the recording chamber, both of which were assumed to be at a reference potential of 0 mV. Oocytes were perfused with a solution comprised of (in mM) 90 NaCl, 1 KCl, 10 HEPES, […] and 0.5 BaCl2; pH 7.4, adjusted by addition of NaOH. Oocytes were recorded under voltage clamp at −40 mV. Final concentrations for glutamate and glycine were 50 μM and 30 μM, respectively. Concentration-response curves for experimental compounds were obtained by applying in successive fashion maximal glutamate/glycine, followed by glutamate/glycine plus variable concentrations of experimental compounds. Dose response curves consisting of four to eight concentrations were obtained in this manner. The baseline leak current at −40 mV was measured before and after recording, and the full recording linearly corrected for any change in leak current. The level of inhibition by applied experimental compounds was expressed as a percent of the initial glutamate response, and averaged together across oocytes from multiple experiments. Results were pooled, and the average percent responses at antagonist concentrations were fit by the equation, Percent Response=(100−minimum)/(1+([conc]/IC50)^nH)+minimum where minimum is the residual percent response in saturating concentration of the experimental compounds, IC50 is the concentration of antagonist that causes half of the achievable inhibition, and nH is a slope factor describing steepness of the inhibition curve. […]
For NMDA receptor subtype selectivity experiments human GluN1/GluN2A, GluN1/GluN2C, and GluN1/GluN2D cRNAs were expressed in Xenopus laevis as described above. Here, 10 μM concentrations of the antagonist was perfused with 50 μM glutamate and 30 μM glycine onto the oocyte for two min and the remaining current in the presence of the antagonist was compared to the maximal current obtained with 50 μM glutamate and 30 μM glycine alone (defined as 100%). When IC50 determinations were made against other NMDA receptor subtypes the protocol as described above was followed. […]

hNR2B, sequence (Q13224 27-1484, other chains not shown): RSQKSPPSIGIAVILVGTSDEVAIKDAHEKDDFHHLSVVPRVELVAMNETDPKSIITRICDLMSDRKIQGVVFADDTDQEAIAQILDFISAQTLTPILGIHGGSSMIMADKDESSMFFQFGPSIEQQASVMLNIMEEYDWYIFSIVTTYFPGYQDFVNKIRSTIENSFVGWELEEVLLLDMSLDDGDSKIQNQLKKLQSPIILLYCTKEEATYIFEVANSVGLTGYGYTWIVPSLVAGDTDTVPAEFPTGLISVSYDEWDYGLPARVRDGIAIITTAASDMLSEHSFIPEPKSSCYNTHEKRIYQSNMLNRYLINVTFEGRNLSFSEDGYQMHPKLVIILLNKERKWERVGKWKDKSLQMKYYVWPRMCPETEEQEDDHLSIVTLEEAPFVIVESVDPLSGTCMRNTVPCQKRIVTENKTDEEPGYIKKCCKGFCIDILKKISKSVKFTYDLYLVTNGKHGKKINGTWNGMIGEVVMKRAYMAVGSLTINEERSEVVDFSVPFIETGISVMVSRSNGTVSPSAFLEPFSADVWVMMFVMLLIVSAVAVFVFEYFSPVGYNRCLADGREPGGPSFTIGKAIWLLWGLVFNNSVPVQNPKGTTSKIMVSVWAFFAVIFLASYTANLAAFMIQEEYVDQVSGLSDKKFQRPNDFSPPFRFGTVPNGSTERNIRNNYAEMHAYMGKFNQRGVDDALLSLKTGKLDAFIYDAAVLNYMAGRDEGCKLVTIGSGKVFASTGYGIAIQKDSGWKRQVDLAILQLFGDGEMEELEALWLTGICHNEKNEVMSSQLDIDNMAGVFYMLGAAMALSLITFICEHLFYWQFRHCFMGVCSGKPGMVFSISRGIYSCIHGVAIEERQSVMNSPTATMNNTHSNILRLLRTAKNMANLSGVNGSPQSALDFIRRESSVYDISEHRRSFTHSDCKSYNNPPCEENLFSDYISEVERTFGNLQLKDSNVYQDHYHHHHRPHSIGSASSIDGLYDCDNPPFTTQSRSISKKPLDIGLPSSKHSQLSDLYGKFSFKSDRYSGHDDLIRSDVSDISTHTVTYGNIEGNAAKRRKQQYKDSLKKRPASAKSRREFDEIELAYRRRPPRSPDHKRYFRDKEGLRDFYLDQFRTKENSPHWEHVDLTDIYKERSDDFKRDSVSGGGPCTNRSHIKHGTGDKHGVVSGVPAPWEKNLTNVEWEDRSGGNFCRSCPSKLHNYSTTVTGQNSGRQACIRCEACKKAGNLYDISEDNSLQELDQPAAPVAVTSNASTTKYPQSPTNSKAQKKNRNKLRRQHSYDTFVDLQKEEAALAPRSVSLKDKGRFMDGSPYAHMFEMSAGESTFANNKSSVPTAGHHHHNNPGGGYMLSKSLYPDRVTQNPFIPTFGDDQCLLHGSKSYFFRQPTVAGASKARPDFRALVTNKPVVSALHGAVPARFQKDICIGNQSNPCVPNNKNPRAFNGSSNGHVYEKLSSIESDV

Row | SMILES | IC50 [nM]
1 | O=c1ccc2cc(OCc3ccc(NCc4ccc(Cl)cc4)nc3)ccc2[nH]1 [Example 1, 6-((6-(4-chlorobenzylamino)pyridin-3-yl)methoxy)quinolin-2(1H)-one] | < 200
2 | O=c1ccc2cc(OCc3ccc(NCc4ccc(Cl)c(Cl)c4)nc3)ccc2[nH]1 [Example 2, 6-((6-(3,4-dichlorobenzylamino)pyridin-3-yl)methoxy)quinolin-2(1H)-one] | 1000 to 10000
3 | O=c1ccc2cc(OCc3ccc(Nc4ccc(OC(F)F)cc4)nc3)ccc2[nH]1 [Example 3] | < 200
4 | O=c1ccc2cc(OCc3ccc(NCc4ccc(OC(F)F)cc4)nc3)ccc2[nH]1 [Example 4] | > 10000
5 | O=c1ccc2cc(OCc3ccc(NCc4ccc(F)c(F)c4)nc3)ccc2[nH]1 [Example 5] | 201 to 1000
6 | O=C1CCc2cc(OCc3ccc(Nc4ccc(OC(F)(F)F)cc4)nc3)cc(F)c2N1 [Example 6] | 1000 to 10000
7 | O=c1ccc2cc(OCc3ccc(NCc4ccc(F)cc4)nc3)ccc2[nH]1 [Example 7] | < 200
8 | O=c1ccc2cc(OCc3ccc(NCc4cccc(Cl)c4)nc3)ccc2[nH]1 [Example 8] | 1000 to 10000
9 | O=c1ccc2cc(OCc3ccc(Nc4ccc(OC(F)(F)F)cc4)nc3)ccc2[nH]1 [Example 9] | < 200
10 | Oc1ccc(OCc2ccc(Nc3ccc(OC(F)F)cc3)nc2)cc1 [Example 10] | < 200
11 | O=c1ccc2cc(OCc3cccc(Nc4ccc(Cl)cc4)n3)ccc2[nH]1 [Example 11] | < 200
12 | O=c1ccc2cc(OCc3cnc(NCc4ccc(Cl)cc4)nc3)ccc2[nH]1 [Example 19] | < 200
13 | O=c1ccc2cc(OCc3cnc(NCc4ccc(F)c(F)c4)nc3)ccc2[nH]1 [Example 26] | < 200
14 | O=c1ccc2cc(OCc3cnc(NCc4ccc(F)cc4)nc3)ccc2[nH]1 [Example 27] | < 200
15 | CS(=O)(=O)c1ccc(Nc2ncc(COc3ccc4[nH]c(=O)ccc4c3)cn2)cc1 [Example 40] | < 200
16 | CCCc1ccc(Nc2ncc(COc3ccc4[nH]c(=O)ccc4c3)cn2)cc1 [Example 43] | < 200
17 | CC(C)(C)c1ccc(Nc2ncc(COc3ccc4[nH]c(=O)ccc4c3)cn2)cc1 [Example 47] | < 200
18 | COc1ncc(Nc2ncc(COc3ccc4[nH]c(=O)ccc4c3)cn2)cc1C [Example 49] | < 200
19 | Cc1nc(Nc2ccc(Cl)cc2)ncc1COc1ccc2[nH]c(=O)ccc2c1 [Example 51] | < 200
20 | Cc1nc(Nc2ccc(OC(F)F)cc2)ncc1COc1ccc2[nH]c(=O)ccc2c1 [Example 52] | < 200
21 | O=c1ccc2cc(OCc3cnc(Nc4ccc(OC(F)F)cc4)nc3C(F)(F)F)ccc2[nH]1 [Example 53] | < 200
22 | O=c1ccc2cc(OCc3cnc(Nc4ccc(Cl)cc4)nc3C(F)(F)F)ccc2[nH]1 [Example 54] | < 200
23 | CN(C)c1nc(Nc2ccc(OC(F)F)cc2)ncc1COc1ccc2[nH]c(=O)ccc2c1 [Example 55] | < 200
24 | FC(F)(F)Oc1ccc(Nc2ncc(COc3ccc4[nH]ncc4c3)cn2)cc1 [Example 56] | < 200

Next, values leading:

Row | IC50 [nM] | SMILES
25 | < 200 | O=c1ccc2cc(OCc3cnc(Nc4ccc(Cl)c(Cl)c4)nc3)ccc2[nH]1 [Example 20]
26 | > 10000 | O=c1ccc2cc(OCc3cnc(NCc4ccc(Cl)c(Cl)c4)nc3)ccc2[nH]1 [Example 21]
27 | < 200 | O=c1ccc2cc(OCc3cnc(Nc4ccc(OC(F)F)cc4)nc3)ccc2[nH]1 [Example 22]
28 | < 200 | O=c1ccc2cc(OCc3cnc(Nc4ccc(OC(F)(F)F)cc4)nc3)ccc2[nH]1 [Example 23]
29 | < 200 | COc1ccc(Nc2ncc(COc3ccc4[nH]c(=O)ccc4c3)cn2)cc1 [Example 24]
30 | < 200 | Cc1ccc(Nc2ncc(COc3ccc4[nH]c(=O)ccc4c3)cn2)cc1 [Example 25]
31 | < 200 | Cc1ccc(Nc2ncc(COc3ccc4[nH]c(=O)ccc4c3)cn2)cc1F [Example 28]
32 | < 200 | COc1ccc(Nc2ncc(COc3ccc4[nH]c(=O)ccc4c3)cn2)cc1F [Example 29]
33 | < 200 | O=c1ccc2cc(OCc3cnc(Nc4ccc(F)cc4)nc3)ccc2[nH]1 [Example 30]
34 | < 200 | O=c1ccc2cc(OCc3cnc(Nc4ccc(F)c(F)c4)nc3)ccc2[nH]1 [Example 31]
35 | 201 to 1000 | O=c1ccc2cc(OCc3cnc(Nc4ccc(F)c(Cl)c4)nc3)ccc2[nH]1 [Example 32]
36 | 1000 to 10000 | COc1cc(Nc2ncc(COc3ccc4[nH]c(=O)ccc4c3)cn2)ccc1F [Example 33]
37 | < 200 | O=c1ccc2cc(OCc3cnc(Nc4ccc(OC(F)F)c(Cl)c4)nc3)ccc2[nH]1 [Example 35]
38 | < 200 | COc1ccc(Nc2ncc(COc3ccc4[nH]c(=O)ccc4c3)cn2)cc1Cl [Example 36]
39 | < 200 | O=c1ccc2cc(OCc3cnc(Nc4ccc(OC(F)F)c(F)c4)nc3)ccc2[nH]1 [Example 37]
40 | < 200 | Cc1cc(Nc2ncc(COc3ccc4[nH]c(=O)ccc4c3)cn2)ccc1OC(F)F [Example 38]
41 | < 200 | CCc1ccc(Nc2ncc(COc3ccc4[nH]c(=O)ccc4c3)cn2)cc1F [Example 39]
42 | < 200 | Cc1ccc(Nc2ncc(COc3ccc4[nH]c(=O)ccc4c3)cn2)cc1C [Example 41]
43 | < 200 | Cc1ccc(Nc2ncc(COc3ccc4[nH]c(=O)ccc4c3)cn2)cc1Cl [Example 42]
44 | < 200 | CC(C)c1ccc(Nc2ncc(COc3ccc4[nH]c(=O)ccc4c3)cn2)cc1 [Example 44]
45 | < 200 | COc1ccc(Nc2ncc(COc3ccc4[nH]c(=O)ccc4c3)cn2)cc1C [Example 46]
46 | < 200 | COc1ccc(Nc2ncc(COc3ccc4[nH]c(=O)ccc4c3)cn2)cn1 [Example 48]
47 | < 200 | O=c1ccc2cc(OCc3cnc(Nc4ccc(OC(F)F)nc4)nc3)ccc2[nH]1 [Example 50]

Same assay, conditions: oocytes voltage clamped at −40 mV; 50 μM glutamate, 30 μM glycine; read-out: hNR2B IC50

Row | SMILES | IC50 [nM]
48 | O=c1ccc2cc(OCc3ccc(NCc4ccc(Cl)cc4)nc3)ccc2[nH]1 [Example 1, 6-((6-(4-chlorobenzylamino)pyridin-3-yl)methoxy)quinolin-2(1H)-one] | 87
49 | O=c1ccc2cc(OCc3ccc(NCc4ccc(Cl)c(Cl)c4)nc3)ccc2[nH]1 [Example 2, 6-((6-(3,4-dichlorobenzylamino)pyridin-3-yl)methoxy)quinolin-2(1H)-one] | > 3000
50 | Oc1ccc(OCc2ccc(Nc3ccc(OC(F)F)cc3)nc2)cc1 [Example 10] | 13
51 | Oc1ccc(OCc2cnc(Nc3ccc(Cl)cc3)nc2)cc1 [Example 12, 4-((2-(4-chlorophenylamino)pyrimidin-5-yl)methoxy)phenol] | 394
52 | Oc1ccc(OCc2cnc(Nc3ccc(Cl)c(Cl)c3)nc2)cc1 [Example 13, 4-((2-(3,4-dichlorophenylamino)pyrimidin-5-yl)methoxy)phenol] | 395
53 | FC(F)(F)Oc1ccc(Nc2ncc(COc3ccc4[nH]nc(C(F)(F)F)c4c3)cn2)cc1 [Example 15, N-(4-(trifluoromethoxy)phenyl)-5-(((3-(trifluoromethyl)-1H-indazol-5-yl)oxy)methyl)pyrimidin-2-amine] | > 3000
54 | O=c1[nH]c2ccc(OCc3cnc(Nc4ccc(OC(F)F)cc4)nc3)cc2o1 [Example 16, 6-((2-((4-(difluoromethoxy)phenyl)amino)pyrimidin-5-yl)methoxy)benzo[d]oxazol-2(3H)-one] | 14
55 | Nc1ncc(OCc2cnc(Nc3ccc(OC(F)F)cc3)nc2)cn1 [Example 17, 5-((2-aminopyrimidin-5-yloxy)methyl)-N-(4-(difluoromethoxy)phenyl)pyrimidin-2-amine] | > 1000
56 | COc1nc(Nc2ccc(OC(F)F)cc2)ncc1COc1ccc2[nH]c(=O)ccc2c1 [Example 18, 6-((2-((4-(difluoromethoxy)phenyl)amino)-4-methoxypyrimidin-5-yl)methoxy)quinolin-2(1H)-one] | 5
57 | O=c1ccc2cc(OCc3cnc(NCc4ccc(F)c(F)c4)nc3)ccc2[nH]1 [Example 26] | 139
58 | O=c1ccc2cc(OCc3cnc(NCc4ccc(F)cc4)nc3)ccc2[nH]1 [Example 27] | 62

Results, then the molecule that gave them:

Row | IC50 [nM] | SMILES
59 | 64 | O=c1ccc2cc(OCc3cnc(Nc4ccc(Cl)cc4)nc3)ccc2[nH]1 [Example 14, 6-((2-(4-chlorophenylamino)pyrimidin-5-yl)methoxy)quinolin-2(1H)-one]
60 | 90 | COc1ccc(Nc2ncc(COc3ccc4[nH]c(=O)ccc4c3)cn2)cc1 [Example 24]
61 | 97 | Cc1ccc(Nc2ncc(COc3ccc4[nH]c(=O)ccc4c3)cn2)cc1 [Example 25]
62 | 101 | Cc1ccc(Nc2ncc(COc3ccc4[nH]c(=O)ccc4c3)cn2)cc1F [Example 28]
